Values of other authors, collected in patent publication US5840756A, “Pharmaceutical composition of L-DOPA ester” (priority 1996, dated 1998).

Legend:
[1] = oral or parenteral route
[2] = oral administration; L-DOPA ethyl ester vs L-DOPA
[3] = not given; remark: listed apart in the source

Compound	Function as a prodrug of levodopa [1]	Time courses of action [2]	Water solubility	Relief from the `off` state ([3]; direct instillation of a slurry through a duodenal tube)	Effect of oral dosing with a dilute aqueous solution ([3]; oral, dilute aqueous solution)	Treated patients in whom disabling motor fluctuations appear ([3]; within five years after initiation, in combination with carbidopa or benserazide)
CCOC(=O)[C@@H](N)Cc1ccc(O)c(O)c1 [L-DOPA ethyl ester]	function as a prodrug of levodopa	same time courses of action	–	–	–	–
N[C@@H](Cc1ccc(O)c(O)c1)C(=O)O [levodopa]	–	same time courses of action	low water solubility	rapid relief	appeared to be effective	about 50%
